Results taken from patent US9896479B2, “Functionalized naphthalene fluorophores” (Kay M. Brummond, priority 2012, dated 2018).

Tests used:
Assay type in all cases: physicochemical
[1] = Absorption spectra (absorption maxima) of dyes in organic solvents
Description: (§1) All commercially available compounds were purchased from Aldrich Chemical Co., GFS Chemicals, Strem Chemicals, Acros Organics, Alfa Aesar, and Advanced Chemtech and used as received, except for p-toluenesulfonyl hydrazide, which was recrystallized from methanol. Amines were purchased from Aldrich Chemical Co. as purified by redistillation and used as received. Tetrahydrofuran (THF), diethyl ether (Et2O), and dichloromethane (CH2Cl2) were purified by passing through alumina using the Sol-Tek ST-002 solvent purification system. Acetonitrile (MeCN) and toluene were freshly distilled from CaH2 prior to use. Benzene was freshly distilled from sodium/benzophenone prior to use Anhydrous N,N-dimethylformamide (DMF), 1,2-dichloroethane (DCE), and 1,4-dioxane were purchased and used as received from Aldrich Chemical Co. Purification of the compounds by flash column chromatography was performed using silica gel (32-63 μm particle size, 60 Å pore size) purchased from Silicycle, or by using a Biotage Horizon flash purification system with either Biotage SNAP KP-SIL silica cartridges, or Teledyne ISCO RediSep Rf normal phase disposable flash columns (40-60 micron). TLC analyses were performed on EMD Chemicals Silica Gel 60 F254 glass plates (250 μm thickness). ^1H NMR and ^13C NMR spectra were recorded on Bruker Avance 300 MHz, 500 MHz, or 600 MHz spectrometers. Spectra were referenced to residual chloroform (7.27 ppm, ^1H, 77.0 ppm, ^13C) or 1,2-dichlorobenzene (6.93 ppm, ^1H, 127.19 ppm, ^13C). Chemical shifts are reported in ppm, multiplicities are indicated by s (singlet), d (doublet), t (triplet), q (quartet), p (pentet), and m (multiplet). Coupling constants, J, are reported in hertz (Hz). All NMR spectra were obtained at room temperature unless otherwise specified. IR spectra were obtained using a Nicolet Avatar E.S.P. 360 FT-IR. EI mass spectroscopy was performed on a Waters Micromass GCT high resolution mass spectrometer. ES mass spectroscopy was performed on a Waters Q-TOF Ultima API, Micromass UK Limited high resolution mass spectrometer. GC mass spectrometry was performed on a Shimadzu GCMS-17A/QP5050A spectrometer. All microwave-mediated reactions were carried out using a Biotage Initiator™ Exp microwave synthesizer. The microwave parameters were set to variable power, constant temperature, with the fixed hold time set to on. The microwave reactions were carried out in 0.2-0.5 mL, 0.5-2 mL, 2-5 mL, or 10-20 mL Biotage microwave vials. […] Absorption and fluorescence spectra were recorded on Lambda 9 spectrophotometer (Perkin Elmer) and FluoroMax-3 spectrofluorometer (Jobin Yvon, Horiba), respectively. Fluorescence quantum yields were determined by taking Prodan in DMSO (quantum yield, QY=91%) as a reference. The quantum yield values were corrected for the solvent refractive index. For spectroscopic measurements, 10^−5 M solutions of dyes in 10 mm quartz-cuvettes were used (excitation wavelength was 334 nm; slits open to 2 nm).

[2] = Fluorescence emission spectra (emission maxima, Stokes and bathochromic shifts); details: for Bathochromic shift: across Toluene, CH2Cl2, DMSO (Table 3)
Description: as §1

[3] = Fluorescence quantum yield vs Prodan in DMSO as reference; details: for QY (fluorescence quantum yield vs Prodan in DMSO (91%)): excitation 334 nm, 10^-5 M
Description: as §1

## CN(C)c1ccc2cc3c(c(-c4ccc(CO)cc4)c2c1)C(=O)CC3 [15b]
[1]; CH2Cl2 (Table 3)
  λabs (absorption maxima): 427 nm
[1]; DMSO (Table 3)
  λabs (absorption maxima): 427 nm
[1]; Toluene (Table 3)
  λabs (absorption maxima): 424 nm
[2]; CH2Cl2 (Table 3)
  SS (Stokes shift): 110 nm
  λem (emission maxima): 537 nm
[2]; DMSO (Table 3)
  SS (Stokes shift): 147 nm
  λem (emission maxima): 574 nm
[2]; Toluene (Table 3)
  SS (Stokes shift): 80 nm
  λem (emission maxima): 504 nm
[2]
  Bathochromic shift: 70 nm

## CC(=O)c1c2c(cc3c(N(C)C)cccc13)CCC2 [Compound 12, 1-(8-(dimethylamino)-2,3-dihydro-1H-cyclopenta[b]naphthalen-4-yl)ethanone]
[3]; 1,4-Dioxane
  QY (fluorescence quantum yield vs Prodan in DMSO (91%)): 44%
[3]; Acetonitrile
  QY (fluorescence quantum yield vs Prodan in DMSO (91%)): 23%
[3]; CH2Cl2
  QY (fluorescence quantum yield vs Prodan in DMSO (91%)): 60%
[3]; CHCl3
  QY (fluorescence quantum yield vs Prodan in DMSO (91%)): 40%
[3]; Cyclohexane
  QY (fluorescence quantum yield vs Prodan in DMSO (91%)): 28%
[3]; DMSO
  QY (fluorescence quantum yield vs Prodan in DMSO (91%)): 48%
[3]; THF
  QY (fluorescence quantum yield vs Prodan in DMSO (91%)): 39%
[3]; Toluene
  QY (fluorescence quantum yield vs Prodan in DMSO (91%)): 47%
[1]; 1,4-Dioxane
  λabs (maximum absorption): 319 nm
[1]; Acetonitrile
  λabs (maximum absorption): 316 nm
[1]; CH2Cl2
  λabs (maximum absorption): 334 nm
[1]; CHCl3
  λabs (maximum absorption): 334 nm
[1]; Cyclohexane
  λabs (maximum absorption): 314 nm
[1]; DMSO
  λabs (maximum absorption): 334 nm
[1]; EtOH
  λabs (maximum absorption): 334 nm
[1]; THF
  λabs (maximum absorption): 330 nm
[1]; Toluene
  λabs (maximum absorption): 322 nm
[1]; in methylene chloride
  absorption maximum: 332 nm
[2]; 1,4-Dioxane
  λem (maximum emission): 534 nm
[2]; Acetonitrile
  λem (maximum emission): 590 nm
[2]; CH2Cl2
  λem (maximum emission): 562 nm
[2]; CHCl3
  λem (maximum emission): 562 nm
[2]; Cyclohexane
  λem (maximum emission): 480 nm
[2]; DMSO
  λem (maximum emission): 598 nm
[2]; EtOH
  λem (maximum emission): 634 nm
[2]; THF
  λem (maximum emission): 543 nm
[2]; Toluene
  λem (maximum emission): 520 nm
[2]; in methylene chloride
  emission maximum: 562 nm

## CC(=O)c1c2c(cc3ccc(N4CCCC4)cc13)CCC2 [Compound 13, 1-(6-(pyrrolidin-1-yl)-2,3-dihydro-1H-cyclopenta[b]naphthalen-4-yl)ethanone]
[1]; CH2Cl2 (Table 3)
  λabs (absorption maxima): 325 nm
[1]; DMSO (Table 3)
  λabs (absorption maxima): 327 nm
[1]; Toluene (Table 3)
  λabs (absorption maxima): 320 nm
[2]; CH2Cl2 (Table 3)
  SS (Stokes shift): 243 nm
  λem (emission maxima): 568 nm
[2]; DMSO (Table 3)
  SS (Stokes shift): 271 nm
  λem (emission maxima): 598 nm
[2]; Toluene (Table 3)
  SS (Stokes shift): 206 nm
  λem (emission maxima): 526 nm
[2]
  Bathochromic shift: 72 nm
[2]; in DCM
  absorption and emission maxima compared with fluorophore 102a: comparable to those observed for fluorophore 102a

## CN(C)c1cccc2c(C(=O)C(C)(C)C)c3c(cc12)CC(CO)(CO)C3 [7b]
[1]; CH2Cl2 (Table 3)
  λabs (absorption maxima): 320 nm
[1]; DMSO (Table 3)
  λabs (absorption maxima): 320 nm
[1]; Toluene (Table 3)
  λabs (absorption maxima): 318 nm
[2]; CH2Cl2 (Table 3)
  SS (Stokes shift): 210 nm
  λem (emission maxima): 530 nm
[2]; DMSO (Table 3)
  SS (Stokes shift): 241 nm
  λem (emission maxima): 561 nm
[2]; Toluene (Table 3)
  SS (Stokes shift): 175 nm
  λem (emission maxima): 493 nm
[2]
  Bathochromic shift: 68 nm

## CC(=O)c1c2c(cc3c(Cl)cccc13)CCC2 [Compound 6c, 1-(8-Chloro-2,3-dihydro-1H-cyclopenta[b]naphthalen-4-yl)ethanone]
[2]; in dichloromethane (DCM)
  emission maximum: 564 nm

## CC(=O)c1c2c(cc3cc(Cl)ccc13)CCC2 [Compound 6d, 1-(7-chloro-2,3-dihydro-1H-cyclopenta[b]naphthalen-4-yl)ethanone]
[2]; in dichloromethane (DCM)
  emission maximum: 581 nm

## CC(=O)c1c2c(cc3cc(N(C)C)ccc13)CCC2 [Compound 11, 1-(7-(dimethylamino)-2,3-dihydro-1H-cyclopenta[b]naphthalen-4-yl)ethanone]
[3]; Acetonitrile
  QY (fluorescence quantum yield vs Prodan in DMSO (91%)): 18%
[3]; CH2Cl2
  QY (fluorescence quantum yield vs Prodan in DMSO (91%)): 82%
[3]; CHCl3
  QY (fluorescence quantum yield vs Prodan in DMSO (91%)): 41%
[3]; Cyclohexane
  QY (fluorescence quantum yield vs Prodan in DMSO (91%)): 8%
[3]; DMSO
  QY (fluorescence quantum yield vs Prodan in DMSO (91%)): 37%
[3]; EtOH
  QY (fluorescence quantum yield vs Prodan in DMSO (91%)): 3%
[3]; THF
  QY (fluorescence quantum yield vs Prodan in DMSO (91%)): 34%
[3]; Toluene
  QY (fluorescence quantum yield vs Prodan in DMSO (91%)): 25%
[1]; Acetonitrile
  λabs (maximum absorption): 370 nm
[1]; CH2Cl2
  λabs (maximum absorption): 372 nm
[1]; CHCl3
  λabs (maximum absorption): 373 nm
[1]; Cyclohexane
  λabs (maximum absorption): 363 nm
[1]; DMSO
  λabs (maximum absorption): 374 nm
[1]; EtOH
  λabs (maximum absorption): 374 nm
[1]; THF
  λabs (maximum absorption): 370 nm
[1]; Toluene
  λabs (maximum absorption): 368 nm
[1]; in methylene chloride
  absorption maximum: ~375 nm
[2]; Acetonitrile
  λem (maximum emission): 545 nm
[2]; CH2Cl2
  λem (maximum emission): 509 nm
[2]; CHCl3
  λem (maximum emission): 514 nm
[2]; Cyclohexane
  λem (maximum emission): 445 nm
[2]; DMSO
  λem (maximum emission): 558 nm
[2]; EtOH
  λem (maximum emission): 605 nm
[2]; THF
  λem (maximum emission): 505 nm
[2]; Toluene
  λem (maximum emission): 481 nm
[2]; in methylene chloride
  emission maximum: ~510 nm

## CC(=O)c1c2c(cc3ccc(Cl)cc13)CCC2 [Compound 6b, 1-(6-Chloro-2,3-dihydro-1H-cyclopenta[b]naphthalen-4-yl)ethanone]
[2]; in dichloromethane (DCM)
  emission maximum: 527 nm

## CC(=O)c1c2c(cc3c(N(C)C)cccc13)CC(CO)(CO)C2 [7a]
[2]; in dichloromethane (DCM)
  emission maximum: 567 nm

## 1-(6-(Dimethylamino)-2,3-dihydro-1H-cyclopenta[b]naphthalen-4-yl)ethanone [Compound 10]
[1]; in DCM
  absorption maximum: 324 nm
[2]; in DCM
  Stokes shift: 207 nm
[2]; in dichloromethane (DCM)
  emission maximum: 531 nm

## 1-(8-(dimethylamino)-2,3-dihydro-1H-cyclopenta[b]naphthalen-4-yl)ethanone [Compound 12]
[2]; in DCM
  absorption and emission maxima compared with fluorophore 102a: comparable to those observed for fluorophore 102a

## CC(=O)c1c2c(cc3ccccc13)CCC2 [Compound 6a, 1-(2,3-Dihydro-1H-cyclopenta[b]naphthalen-4-yl)ethanone]
[2]; in dichloromethane (DCM)
  emission maximum: 566 nm

## CC(=O)c1c2c(cc3ccc(N(C)C)cc13)CCC2 [Compound 10, 1-(6-(Dimethylamino)-2,3-dihydro-1H-cyclopenta[b]naphthalen-4-yl)ethanone]
[3]; 1,4-Dioxane
  QY (fluorescence quantum yield vs Prodan in DMSO (91%)): 46%
[3]; Acetonitrile
  QY (fluorescence quantum yield vs Prodan in DMSO (91%)): 99%
[3]; CH2Cl2
  QY (fluorescence quantum yield vs Prodan in DMSO (91%)): 99%
[3]; CHCl3
  QY (fluorescence quantum yield vs Prodan in DMSO (91%)): 77%
[3]; Cyclohexane
  QY (fluorescence quantum yield vs Prodan in DMSO (91%)): 45%
[3]; DMSO
  QY (fluorescence quantum yield vs Prodan in DMSO (91%)): 85%
[3]; EtOH
  QY (fluorescence quantum yield vs Prodan in DMSO (91%)): 5%
[3]; THF
  QY (fluorescence quantum yield vs Prodan in DMSO (91%)): 75%
[3]; Toluene
  QY (fluorescence quantum yield vs Prodan in DMSO (91%)): 62%
[3]; in dichloroethane
  quantum yield: 99%
[1]; 1,4-Dioxane
  λabs (maximum absorption): 376 nm
[1]; Acetonitrile
  λabs (maximum absorption): 375 nm
[1]; CH2Cl2
  λabs (maximum absorption): 377 nm
[1]; CHCl3
  λabs (maximum absorption): 377 nm
[1]; Cyclohexane
  λabs (maximum absorption): 373 nm
[1]; DMSO
  λabs (maximum absorption): 377 nm
[1]; EtOH
  λabs (maximum absorption): 377 nm
[1]; THF
  λabs (maximum absorption): 377 nm
[1]; Toluene
  λabs (maximum absorption): 376 nm
[1]; dichloroethane
  absorption maxima: 377 nm
[1]; in methylene chloride
  absorption maximum: ~375 nm
[2]; 1,4-Dioxane
  λem (maximum emission): 495 nm
[2]; Acetonitrile
  λem (maximum emission): 529 nm
[2]; CH2Cl2
  λem (maximum emission): 510 nm
[2]; CHCl3
  λem (maximum emission): 516 nm
[2]; Cyclohexane
  λem (maximum emission): 466 nm
[2]; DMSO
  λem (maximum emission): 536 nm
[2]; EtOH
  λem (maximum emission): 578 nm
[2]; THF
  λem (maximum emission): 497 nm
[2]; Toluene
  λem (maximum emission): 490 nm
[2]; in methylene chloride
  emission maximum: ~510 nm
